Measurements: the supplement of paper PMC6723410

System: GUMC-403
Assay: viability at highest tested concentration (max response) relative to DMSO (% of DMSO control); higher = less cytotoxic
Details: library / dose series: MIPE library, 11-point 1:3 dilution, 48 h
How it was run: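 GUMC-403 papilloma cells, derived from a patient and expanded by conditional reprogramming, were dispensed at 700/well into 1536-well plates in 5 μL F + Y medium. A pin tool delivered 23 nL of each compound across an 11-point 1:3 dilution series for 48 h. CellTiter-Glo luminescence, read on a ViewLux, was normalised so that vehicle wells equalled 100% and empty wells 0%. Values report viability at the highest tested concentration relative to vehicle control.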

Compound | viability (top concentration 46.1 µM) | viability (top concentration 23 µM)
c1ccc2c(Oc3nc(Nc4ccc(N5CCOCC5)cc4)c4ncn(C5CCCCC5)c4n3)cccc2c1 | 124 | 
O=C1c2ccccc2-c2n[nH]c3cccc1c23 | 99.2 | 
COc1cc2c(NC3CCN(C(C)C)CC3)nc(C3CCCCC3)nc2cc1OCCCN1CCCC1 | 82.3 | 
O=C(O)c1ccccc1C(=O)Nc1ccc(-c2ccccc2)cc1 | 111 | 
CN(C)CCCNC(=O)c1ccc(-c2cc(O)c3ncccc3c2)cc1 | 120 | 
CCC(=O)O[C@@]1(CC[C@H]2[C@@H]3CCC/4=C/C(=O)CC[C@]4(C)[C@H]3CC[C@]12C)C(=O)CO | 119 | 
OCCC#Cc1nc(-c2ccc(F)cc2)c(-c2ccncc2)n1CCCc1ccccc1 | 64 | 
COCCOc1nc(-c2ccc(Cl)c(Cl)c2)n(-c2ccc(NC(=O)CCl)cc2)n1 | 85.8 | 
OC(=O)\C1=C\N(C2=CC=C(F)C=C2)C3=C(C=C(F)C(=C3)N4CCNCC4)C1=O | 120 | 
CC1OC(OC/2=C(/OC3=C(C(=CC(=C3)O)O)C2=O)C4=CC=C(O)C=C4)C(O)C(OC(C)=O)C1OC(C)=O (configuration not stated) | 116 | 
COc1ccc(C(=O)CC(=O)c2ccc(C(C)(C)C)cc2)cc1 | 126 | 
OCCn1cc(-c2cnc3nnn(Cc4ccc5ncccc5c4)c3n2)cn1 | 106 | 
Cc1nc(-c2ccc(OCC(C)C)c(C#N)c2)sc1C(=O)O | 129 | 
C[C@H]1C[C@H]2[C@@H]3CCC4=CC(=O)C=C[C@]4(C)[C@H]3C(=O)C[C@]2(C)[C@@]1(O)C(=O)CO | 104 | 
O=C(Nc1nc2ccccc2n1CCN1CCOCC1)c1cccc([N+](=O)[O-])c1 | 124 | 
c1ccc(CCCN2CCN(CCOC(c3ccccc3)c3ccccc3)CC2)cc1 | 88.7 | 
O=C1Nc2ccc(I)cc2/C1=C/c1cc(Br)c(O)c(Br)c1 | 146 | 
CC1=C(/C=C/C(C)=C/C=C/C(C)=C\C(=O)O)C(C)(C)CCC1 | 90 | 
CC(C)c1c(C(=O)Nc2ccccc2)c(-c2ccccc2)c(-c2ccc(F)cc2)n1CC[C@@H](O)C[C@@H](O)CC(=O)[O-] | 70.3 | 
Cc1cc(Nc2ncnc3ccc(-c4ccc(CNCC[S+](C)(=O)[O-])o4)cc23)ccc1Oc1ccn2ncnc2c1 | 99.8 | 
Cn1cnc(-c2cc3nccc(Oc4ccc(NC(=S)NC(=O)Cc5ccccc5)cc4F)c3s2)c1 | 96.8 | 

Compound | viability (top concentration 46.1 µM) | viability (top concentration 23 µM)
O=C(NCCO[N+](=O)[O-])c1cccnc1 | 108 | 
COc1cc(OC)c(/C=C/[S+](=O)([O-])Cc2ccc(OC)c(NCC(=O)[O][Na])c2)c(OC)c1 | 118 | 
C[C@]12CC[C@@H]3c4ccc(O)cc4CC[C@H]3[C@@H]1CC[C@@H]2O | 86.3 | 
CCN1CCC(n2cc(CNc3cc(Cl)c4ncc(C#N)c(Nc5ccc(F)c(Cl)c5)c4c3)nn2)CC1 | 97 | 
Cc1ccc2c(c1)c1c(n2CCc2ccc(C)nc2)CCN(C)C1 | 108 | 
CN1CCN(c2ccc([N+](=O)[O-])c3no[n+]([O-])c23)CC1 | 108 | 
Cc1c(NC(=O)OC[C@@H]2COCCN2)cn2ncnc(Nc3ccc4c(cnn4Cc4cccc(F)c4)c3)c12 | 75.8 | 
C[C@@H]1[C@H](O)[C@@H](C)C=CC=CCCC=CC=CC=CC=C[C@H](O[C@H]2O[C@@H](C)[C@H](O)[C@@H](N)[C@H]2O)CC2O[C@](O)(C[C@@H](O)[C@H](O)CC[C@@H](O)C[C@@H](O)C[C@@H](O)CC(=O)O[C@H]1C)C[C@H](O)[C@H]2C(=O)O | 115 | 
COc1ccccc1OCC(O)COC(N)=O (configuration not stated) | 117 | 
O=c1c(-c2ccc(O)cc2)coc2cc(O[C@@H]3O[C@H](CO)[C@@H](O)[C@H](O)[C@H]3O)ccc12 | 135 | 
OC1=CC=C(C=C1)\C2=C(O)\C(=O)C3=C(O2)C=C(O)C=C3O | 160 | 
O=C(Nc1cccc(Br)c1)c1cccc([S+](=O)([O-])N2CCCCCC2)c1 | 111 | 
C[C@H]1COC2=C3N1\C=C(C(O)=O)/C(=O)C3=CC(=C2N4CCN(C)CC4)F | 105 | 
C[C@]12CC[C@@H]3c4ccc(O)cc4C[C@@H](CCCCCCCCC[S+]([O-])CCCC(F)(F)C(F)(F)F)[C@H]3[C@@H]1CC[C@@H]2O (some centres not stated) | 114 | 
C[C@H](CCC(=O)O)[C@H]1CC[C@H]2[C@@H]3[C@@H](O)C[C@@H]4C[C@H](O)CC[C@]4(C)[C@H]3CC[C@]12C | 84.8 | 
C[C@H]1COC/2=C1/C(=O)C(=O)C3=C4CCCC(C)(C)C4=CC=C23 | 137 | 
c1cc2c(cc1[C@H]1OC[C@H]3[C@@H]1CO[C@@H]3c1ccc3c(c1)OCO3)OCO2 | 124 | 
N/C(=N\C(=O)c1nc(Cl)c(N)nc1N)NCc1ccccc1 | 130 | 
COc1cc2nccc(Oc3ccc(NC(=O)C4(C(=O)Nc5ccc(F)cc5)CC4)cc3)c2cc1OC | 63.3 | 
CCN1\C=C(\C(O)=O)C(=O)C2=CC=C(C)N=C12 | 92 | 
NC(=O)c1cnc(-c2ccc(C3(N)CCC3)cc2)c(-c2ccccc2)c1 | 103 | 

Compound | viability (top concentration 46.1 µM) | viability (top concentration 23 µM)
O=C1C[C@@H](c2ccc(O)cc2)Oc2cc(O)cc(O)c21 | 113 | 
CCCC1=NC(=C2[N]1NC(=N\C2=O)/C3=CC(=CC=C3OCC)[S+]([O-])(=O)N4CCN(CC)CC4)C | 102 | 
Cc1c(OCC(F)(F)F)ccnc1C[S+]([O-])c1nc2ccccc2[nH]1 (configuration not stated) | 82.7 | 
O=C1Nc2ccc(Cl)cc2C(C#CC2CC2)(C(F)(F)F)O1 (configuration not stated) | 95.5 | 
COc1ccc(-c2cc3nccn3c(Nc3ncccc3C(N)=O)n2)cc1OC | 107 | 
CC1(C)CC(O)CC(C)(C)N1[O] | 121 | 
CCN1C[C@H](C)[N]2C(=C(O)C3=C2\C(=N/N(CC4=CC=C(F)C(=C4)Cl)C3=O)C(=O)NC)C1=O | 123 | 
O=C(C=CC#Cc1cccc(N[S+](=O)([O-])c2ccccc2)c1)NO | 108 | 
COC(=O)[C@@H](N)CCCNC(=N)N[N+](=O)[O-] | 107 | 
CCOC(=O)C(C#N)C\1C2=CC(=CC=C2O\C(=C1C(=O)OCC)N)Br (configuration not stated) | 120 | 
OC(=O)C1=CC=C(NC2=NC3=C(C\N=C(/C4=CC(=CC=C34)Cl)C5=C(F)C=CC=C5F)C=N2)C=C1 | 131 | 
CC/C=C\C[C@H]1C(=O)CC[C@@H]1CC(=O)OC | 120 | 
C=C(C)[C@@H]1CC[C@]2(C(=O)O)CC[C@]3(C)[C@H](CC[C@@H]4[C@@]5(C)CC[C@H](O)C(C)(C)[C@@H]5CC[C@]43C)[C@@H]12 | 94.5 | 
O=C(CN1C(=O)C2(CCCC2)NC[C@H]1c1cc(F)cc(F)c1)Nc1ccc2c(c1)C[C@@]1(C2)C(=O)Nc2ncccc21 | 148 | 
CNC(=O)c1c(F)cccc1Nc1nc(Nc2cc3c(cc2OC)CCN3C(=O)CN(C)C)nc2[nH]ccc12 | 84.8 | 
CCc1cccc(CC)c1NC(=O)N1Cc2[nH]nc(NC(=O)c3ccc(N4CCN(C)CC4)cc3)c2C1 | 87.2 | 
CCCCCCCCc1ccc(CCC(N)(CO)CO)cc1 | 90.9 | 
Cc1[nH]c(/C=C2\C(=O)Nc3ccc([S+](=O)([O-])N(C)c4cccc(Cl)c4)cc32)c(C)c1C(=O)N1CCN(C)CC1 | 138 | 
CC[C@H]1OC(=O)[C@H](C)[C@@H](O[C@H]2C[C@@](C)(OC)[C@@H](O)[C@H](C)O2)[C@H](C)[C@@H](O[C@@H]2O[C@@H](C)C[C@H](N(C)C)[C@H]2O)[C@](C)(O)C[C@@H](C)C(=O)[C@H](C)[C@@H](O)[C@]1(C)O | 116 | 
NC1(Cc2ccc(Cl)cc2)CCN(c2ncnc3[nH]ccc23)CC1 | 62.8 | 
CCC1(c2ccccc2)C(=O)NCNC1=O | 105 | 

Compound | viability (top concentration 46.1 µM) | viability (top concentration 23 µM)
CC(C)(C#N)c1cc(Cn2cncn2)cc(C(C)(C)C#N)c1 | 116 | 
COC(=O)[C@H](c1ccccc1Cl)N1CCc2sccc2C1 | 124 | 
N#CC[C@H](C1CCCC1)n1cc(-c2ncnc3[nH]ccc23)cn1 | 117 | 
S=C1N\C=N/C2=C1[NH]C=N2 | 103 | 
Fc1ccc(C(c2ccc(F)cc2)N2CCN(C/C=C/c3ccccc3)CC2)cc1 | 109 | 
OC1CCC(CC1)N2\C=N/C3=C(C2=N)C(=C([N]3CC4=CC=CC=C4)C5=CC=CC=C5)C6=CC=CC=C6 (configuration not stated) | 126 | 
NC(=O)c1ncn([C@@H]2O[C@H](CO)[C@@H](O)[C@H]2O)c1O | 116 | 
Cc1ccc(NC(=O)Nc2cc(C(F)(F)F)ccc2F)cc1Nc1ccc2c(c1)NC(=O)/C2=C\c1ccc[nH]1 | 99.8 | 
C[C@]12CC(=O)[C@H]3[C@@H](CC\C4=C\C(=O)\C=C/[C@]34C)[C@@H]1CC[C@]2(O)C(=O)CO |  | 131
N[C@@H](C(=O)N[C@H]1[C@H]2SC\C(=C(/N2C1=O)C(O)=O)Cl)C3=CC=CC=C3 | 122 | 
C[C@@H](O)[C@@H]1[C@H]2[C@@H](C)\C(=C(/N2C1=O)C(=O)OCOC(=O)C(C)(C)C)SC3CN(C3)/C4=N/CCS4 | 78.1 | 
NCCc1c[nH]cn1 | 135 | 
COCC(=O)NC/C=C/c1ccc2ncnc(Nc3ccc(Oc4ccc(C)nc4)c(C)c3)c2c1 | 98.1 | 
Nc1nccc(-c2ccc3noc(-c4ccc(Cl)cc4)c3c2)n1 | 80.1 | 
CN1CCC[C@@H]1CCO[C@](C)(c1ccccc1)c1ccc(Cl)cc1 | 103 | 
C[C@@]1(C(=O)Nc2ccc(F)nc2)CCCN1c1nc(Nc2cc(C3CC3)[nH]n2)c2cccn2n1 | 63.1 | 
OC(Cn1cncn1)(Cn1cncn1)c1ccc(F)cc1F | 130 | 
COc1ccc2[nH]cc(CCNC(C)=O)c2c1 | 106 | 
C=C[C@H]1CN2CCC1C[C@@H]2C(O)c1ccnc2ccc(OC)cc12 (some centres not stated) | 101 | 
